Tested on: patients having breast cancer
Experiment: Clinical trial 2: retrospective analysis, breast cancer patients treated with cisplatin, stratified by biomarkers
Format: in vivo, human
Details: Trial 2, breast cancer, neoadj, N=24
Excerpt: Table 5 below summarizes the results of these studies.

## N.N.[Cl][Pt][Cl] [Cisplatin, cisplatin]
Patients predicted in bottom 10% of responsiveness
  overall response rate (ORR): ORR 50%
Patients predicted in top 10% of responsiveness
  overall response rate (ORR): ORR 100%

— patent US10907214B2, “Methods for predicting drug responsiveness in cancer patients” (Oncology Venture ApS, priority 2016, dated 2021)
